# What was measured:
# [1] = system: KB; assay: Cytotoxicity against human KB cells; format: functional; details: read-out: ED50 (the source's name)
# [2] = system: P388; assay: Cytotoxicity against mouse P388 cells; format: functional; details: read-out: ED50 (the source's name)
smiles,measurement,setting,value
CC[C@@H](C)[C@]12Oc3cc(-c4c(O)c(O)c(-c5ccc(OC(C)=O)cc5)c(OC(C)=O)c4OC(C)=O)ccc3O[N+]1([O-])C(O)=C([C@@H](C)CC)N(O)C2=O (some centres not stated) [SARCODONIN],EC50,[1],10 µg/mL
same,EC50,[2],27 µg/mL

# — ChEMBL document CHEMBL1155692, “An unusual nitrogenous terphenyl derivative from fruiting bodies of the basidiomycete Sarcodon leucopus” (2000)
